In patent US20250171459A1, “2-METHYL-4',5'-DIHYDROSPIRO[PIPERIDINE-4,7'-THIENO[2,3-C]PYRAN] DERIVATIVES AS INHIBITORS OF APOL1 AND METHODS OF USING SAME” (Vertex Pharmaceuticals Incorporated, priority 2022, published 2025):

Target: T1, APOL1 (Homo sapiens, UniProt O14791)
T1 sequence (O14791 1-398 S342G/I384M): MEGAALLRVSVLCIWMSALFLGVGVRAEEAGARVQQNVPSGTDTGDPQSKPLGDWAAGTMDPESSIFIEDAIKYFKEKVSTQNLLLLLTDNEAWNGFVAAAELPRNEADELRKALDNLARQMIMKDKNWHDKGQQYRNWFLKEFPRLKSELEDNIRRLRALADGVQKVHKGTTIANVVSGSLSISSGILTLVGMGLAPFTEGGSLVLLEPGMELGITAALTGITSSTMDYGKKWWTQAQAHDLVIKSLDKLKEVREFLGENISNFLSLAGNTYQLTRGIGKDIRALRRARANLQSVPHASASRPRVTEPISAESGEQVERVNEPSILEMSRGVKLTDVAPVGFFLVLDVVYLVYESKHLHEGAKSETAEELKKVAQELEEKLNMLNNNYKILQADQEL
Test: MultiTox-Fluor Multiplex Cytotoxicity Assay in tet-inducible APOL1 T-REx-HEK293 cells (cell rescue, ratio of dead to live cells)
Assay type: cell-based
Details: tet-inducible transgenic APOL1 T-REx-HEK293 cell lines, 50 ng/mL tet, 24 hours; read-out: IP50 (i.e., IC50 for cell proliferation)
Excerpt: The MultiTox-Fluor Multiplex Cytotoxicity Assay is a single-reagent-addition, homogeneous, fluorescence assay that measures the number of live and dead cells simultaneously in culture wells. The assay measures cell viability and cytotoxicity by detecting two distinct protease activities. […] The substrate enters intact cells, where it is cleaved to generate a fluorescent signal proportional to the number of living cells. […] A ratio of dead to live cells is used to normalize data.
The MultiTox reagent was added to each well and placed back in the incubator for an additional 30 minutes. The plate was read on the EnVision plate reader. A ratio of dead to live cells was used to normalize, and data was imported, analyzed, and fit using Genedata Screener (Basel, Switzerland) software. Data was normalized using percent of control, no tet (100% viability), and 50 ng/mL tet treated (0% viability), and fit using Smart Fit. The reagents, methods, and complete protocol for the MultiTox assay are described below.
Cells were washed with DPBS and then trypsinized to dissociate from the flask. Media was used to quench the trypsin, cells were then pelleted at 200 g and resuspended in fresh cell assay media (DMEM, 2% Tet-free FBS, 2 mM L-glutamine, 100 Units/mL penicillin-streptomycin). […] The plates were then incubated at room temperature for one hour.
Tetracycline is needed to induce APOL1 expression. 1 mg/mL tet stock in water was diluted to 250 ng/mL (5×) in cell assay media.
Compounds were dispensed at 200 nL in DMSO. The final top concentration was 10 μM with a 10 point 3-fold dilution in duplicate in the MultiTox assay.
20 μL was transferred from the 5× tet plate to the ARP and mixed, then 5 μL of 5× tet and the compounds were transferred to the cell plate and mixed using the Bravo. The cell plate was placed in the humidified 37° C. 5% CO2 incubator for 24 hours.
The MultiTox-Fluor Multiplex Cytotoxicity Assay was performed in accordance with the manufacturer's protocol. After cells were incubated with tet and compound for 24 hours, 25 μL of 1× MultiTox reagent was added to each well using the Multidrop dispenser; the plates were placed on a plate shaker (600 rpm) for 2 minutes, then centrifuged briefly and placed back in the 37° C. incubator for 30 minutes. The cell viability (excitation: 400 nm, emission: 486 nm) and cytotoxicity (excitation: 485 nm, emission: 535 nm) were read using the EnVision plate reader. A ratio of dead (cytotoxicity) to live (viability) cells was reported. Data was exported and analyzed in Genedata. Data was normalized using percent of control, no tet (100% viability), and 50 ng/mL tet treated (0% viability), and fit using Smart Fit settings in Genedata.

Row | Structure (SMILES) | IC50
1 | C[C@H]1C[C@@]2(CCN1Cc1cnn(CCS(C)(=O)=O)c1)OCC(O)c1cc(C(F)(F)F)sc12 (single isomer, unassigned) [Compound 881] | < 0.1 µM
2 | C[C@H]1C[C@@]2(CCN1Cc1cnn(CCS(C)(=O)=O)c1)OCC(O)c1cc(C(F)(F)F)sc12 (single isomer, unassigned) [Compound 882] | < 0.1 µM
3 | C[C@H]1C[C@@]2(CCN1Cc1cnn(CCS(C)(=O)=O)c1)OCC(O)c1cc(C(F)(F)C(F)F)sc12 (single isomer, unassigned) [Compound 1013] | < 0.1 µM
4 | C[C@H]1C[C@@]2(CCN1Cc1cnn(CCS(C)(=O)=O)c1)OCC(O)c1cc(C(F)(F)C(F)F)sc12 (single isomer, unassigned) [Compound 1014, (2′S, 7R)-2′-methyl-1′-[[1-(2-methylsulfonylethyl)pyrazol-4-yl]methyl]-2-(1,1,2,2-tetrafluoroethyl)spiro[4,5-dihydrothieno[2,3-c]pyran-7,4′-piperidine]-4-ol] | < 0.1 µM
5 | CCc1cc2c(s1)C(C)COC21CCN(Cc2cnn(C)c2)CC1 (single isomer, unassigned) [Compound 1170, 2-ethyl-7-methyl-1′-[(1-methylpyrazol-4-yl)methyl]spiro[6,7-dihydrothieno[3,2-c]pyran-4,4′-piperidine]] | 0.1 to 0.5 µM
6 | CCc1cc2c(s1)C(C)COC21CCN(Cc2cnn(C)c2)CC1 (single isomer, unassigned) [Compound 1171, 2-ethyl-7-methyl-1′-[(1-methylpyrazol-4-yl)methyl]spiro[6,7-dihydrothieno[3,2-c]pyran-4,4′-piperidine]] | 0.5 to 1 µM
7 | CCc1cc2c(s1)CCO[C@@]21CCN(C[C@H]2C[C@@H](NC(=O)C3CCc4ccccc4O3)C2)[C@H](C)C1 (stereo in doubt) [Compound 332] | 0.1 to 0.5 µM
8 | C[C@@H]1C[C@]2(CCN1Cc1cn(CC(O)C(C)(C)O)nn1)OCCc1cc(Cl)sc12 (stereo in doubt) [Compound 626, 1-(4-(((2R,4S)-2′-chloro-2-methyl-4′,5′-dihydrospiro[piperidine-4,7′-thieno[2,3-c]pyran]-1-yl)methyl)-1H-1,2,3-triazol-1-yl)-3-methylbutane-2,3-diol] | < 0.1 µM
9 | C[C@@H]1C[C@]2(CCN1Cc1cnn(C)c1)OCCc1cc(Cl)sc12 (stereo in doubt) [Compound 630, (2R,4S)-2′-chloro-2-methyl-1-((1-methyl-1H-pyrazol-4-yl)methyl)-4′,5′-dihydrospiro[piperidine-4,7′-thieno[2,3-c]pyran]] | < 0.1 µM
10 | CCN1CC[C@]2(C[C@@H]1C)OCC(O)c1cc(Cl)sc12 (stereo in doubt) [Compound 821, (2′S,4S,7R)-2-chloro-1′-ethyl-2′-methyl-spiro[4,5-dihydrothieno[2,3-c]pyran-7,4′-piperidine]-4-ol] | 0.1 to 0.5 µM
11 | C[C@H]1C[C@@]2(CCN1Cc1cnn(CC(O)C(C)(C)O)c1)OCC(O)(C(F)F)c1cc(Cl)sc12 (stereo in doubt) [Compound 829, 1-[4-[[(2′S,4R,7R)-2-chloro-4-(difluoromethyl)-4-hydroxy-2′-methyl-spiro[5H-thieno[2,3-c]pyran-7,4′-piperidine]-1′-yl]methyl]pyrazol-1-yl]-3-methyl-butane-2,3-diol] | < 0.1 µM
12 | CCc1cc2c(s1)CCO[C@@]21CCN(Cc2cn(C3CN(S(=O)(=O)CCO)C3)nn2)[C@@H](C)C1 [Compound 1, 2-[3-[4-[[(2′S,4R)-2-ethyl-2′-methyl-spiro[6,7-dihydrothieno[3,2-c]pyran-4,4′-piperidine]-1′-yl]methyl]triazol-1-yl]azetidin-1-yl]sulfonylethanol] | < 0.1 µM
13 | CCc1cc2c(s1)CCO[C@@]21CCN(Cc2cn(C3CN(S(=O)(=O)c4c[nH]cn4)C3)nn2)[C@@H](C)C1 [Compound 2] | < 0.1 µM
14 | CCc1cc2c(s1)CCO[C@@]21CCN(Cc2cn(C3CN(S(=O)(=O)c4nccn4C)C3)nn2)[C@@H](C)C1 [Compound 3] | < 0.1 µM
15 | CCc1cc2c(s1)CCO[C@@]21CCN(Cc2cn(C3CN(S(=O)(=O)c4cn[nH]c4)C3)nn2)[C@@H](C)C1 [Compound 4] | < 0.1 µM
